Two compounds from article PMC4624142, “Purification and characterisation of intracellular alpha-galactosidases from Acinetobacter sp” (3 Biotech, 2015) can be followed below.

Assay type in all cases: biochemical, Acinetobacter sp.
Common to all, as to conditions: 20 mM Tris pH 7.0, 50 °C; unit mM ml^−1 [sic]

Test [1] has as its system T1, alpha-galactosidase II (Ag-II).
T1 construct: native intracellular enzyme purified from Acinetobacter sp. isolate G1 (soil, sugarcane industry, Sangareddy, India); 37 kDa, monomer
Kind of test: reducing sugar (DNS, […] nm), Lineweaver-Burk.

Test [2] concerns T2, alpha-galactosidase I (Ag-I).
T2 construct: native intracellular enzyme purified from Acinetobacter sp. isolate G1 (soil, sugarcane industry, Sangareddy, India); 65 kDa, monomer
Kind of test: reducing sugar (DNS, […] nm), Lineweaver-Burk.

Test [3] has as its system T1, alpha-galactosidase II (Ag-II). Kind of test: p-nitrophenol release at […] nm, Lineweaver-Burk.
The test system of test [4] is T2, alpha-galactosidase I (Ag-I). Kind of test: p-nitrophenol release at […] nm, Lineweaver-Burk.

In the case of `OC[C@H]1O[C@H](OC[C@H]2O[C@H](O[C@]3(CO)O[C@H](CO)[C@@H](O)[C@@H]3O)[C@H](O)[C@@H](O)[C@@H]2O)[C@H](O)[C@@H](O)[C@H]1O` [Raffinose], the “Michaelis constant (K m) mM ml^-1” value in test [1] stood at 0.74 mM ml^−1; in test [2], 3.26 mM ml^−1.
For `O=[N+]([O-])c1ccc(O[C@H]2O[C@H](CO)[C@H](O)[C@H](O)[C@H]2O)cc1` [ρNPGal, p-Nitrophenyl-α-D-galactopyranoside], the figures for the “Michaelis constant (K m) mM ml^-1” value in test [3] and in test [4] were 0.68 mM ml^−1 and 0.33 mM ml^−1, respectively.
